Experimental findings from patent US20260176289A1, “SMALL MOLECULE INHIBITORS OF KRAS PROTEINS” (Merck Sharp & Dohme LLC, priority 2022, published 2026) are described below.

One assay concerns AsPC-1 cells. Nature of the assay: Cellular phospho-ERK assay, AsPC-1 cells (homozygous KRAS-G12D). The class given is cell-based. The following applies: Homo sapiens, read-out: AsPC1 pERK IC50. The procedure: Procedure for Cellular Phospho-ERK Assay in KRAS Wild Type and Mutant (G12D, G12V) Cell Lines
MKN-1 cells (JCRB JCRB0252) containing amplified wild-type KRAS, were cultured in growth medium that contains RPMI 1640-GlutaMAX™-I (ThermoFisher Scientific 61870) containing 10% heat inactivated fetal bovine serum (ThermoFisher Scientific 10091148), 1 mM sodium pyruvate and 10 mM HEPES. PANC08.13 cells (ATCC® CRL-2551™), containing homozygous KRAS-G12D activating mutation, were cultured in growth medium made of RPMI1640-GlutaMAX™-I (ThermoFisher Scientific 61870) containing 15% heat inactivated fetal bovine serum (ThermoFisher Scientific 10091148)). AsPC-1 cells (ATCC® CRL-1682™), containing homozygous KRAS-G12D activating mutation, were cultured in T150 flask in growth medium (RPMI medium 1640-GlutaMAX™-I (ThermoFisher Scientific 61870) containing 10% fetal bovine serum (ThermoFisher Scientific 10091148)). SW620 cells (ATCC® […]), containing homozygous KRAS-G12V activating mutation, were cultured in growth medium that contains RPMI 1640-GlutaMAX™-I (ThermoFisher Scientific 61870) containing 10% heat inactivated fetal bovine serum (ThermoFisher Scientific 10091148).
Cells for the assay were harvested in growth medium after TrypLE (ThermoFisher scientific 12604021) digestion and were seeded in a 384-well collagen coated cell culture plate (Corning 356702) at a density of 10,000-15,000 cells/20 μL/well, and incubated at 37° C., 5% CO2 overnight. The compound (with 10 mM stock concentration) dose-response titrations were prepared [30 μM final ERK detection assay concentration and 1:3 dilutions, 10-point dose response] and appropriate amounts (270 nL) of test compounds were dispensed in a 384-well intermediate plate using an Echo 550 liquid handler. 30 μL/well of RPMI medium 1640-GlutaMAX™—I was added to the intermediate plate and the contents of the intermediate plate (10 μL/well) were then transferred to the 384-well collagen coated cell culture plate, which was incubated at 37° C., 5% CO2 for 2 hours. After removal of medium from the collagen coated cell culture plate, cells were lysed in lysis buffer from Alpha SureFire® Ultra™ Multiplex p-ERK and total ERK assay kit (PerkinElmer MPSU-PTERK) containing Halt™ Protease and Phosphatase inhibitor cocktail (ThermoFisher Scientific 78446) at room temperature with constant shaking at 300 rpm for 30 minutes. The cell lysates were then transferred to an OptiPlate-384 plate (PerkinElmer 6005620), and the phosphorylation of ERK (p-ERK) and total ERK levels were detected by Alpha SureFire® Ultra™ Multiplex p-EEK kit and total ERK assay kit (PerkinElmer MPSU-PTERK) following the manufacturer's protocol. Assay plates were read on a En Vision Multimode Plate Reader (PerkinElmer), and the ratio of p-ERK vs. total ERK in each well was used as the final readout. Dose response curves were analyzed using a 4-parameter logistic model to calculate IC50 values using Spotfire software.

A further assay concerns the target KRAS-WT (Homo sapiens, UniProt P01116). The assay is described as follows: SOS-catalyzed nucleotide exchange assay (Procedure A, TR-FRET), KRAS-WT. The class given is biochemical. The source says: (§1) Procedure for SOS-Catalyzed Nucleotide Exchange Assay for KRAS-WT, G12C/D/V, G13D, HRAS, and NRAS (Procedure A)
(§2) Recombinant KRAS-G12C protein used in this assay has an additional triple mutation (C51S/C80L/C118S). Whereas KRAS-WT, G12D/V, G13D, HRAS and NRAS are in context of their WT protein sequence background. Specifically, the SOS-catalyzed nucleotide exchange assay utilizes a preformed TR-FRET complex containing a specific biotinylated RAS protein (KRAS-WT, G12C/V/D, G13D, HRAS, NRAS; described above) with Bodipy-GDP, and Terbium-streptavidin. Compounds are preincubated with this complex for 60 minutes. Subsequently, recombinant human SOS protein and unlabeled GTP are added to initiate the exchange reaction. Small molecule inhibitors stabilize the Bodipy-GDP complex whereas the untreated protein rapidly exchanges Bodipy-GDP for unlabeled GTP resulting in reduced TR-FRET signal.
(§3) To assemble the preformed TR-FRET complexes, each biotinylated RAS protein is diluted to 2 μM in an EDTA Buffer (20 mM HEPES pH 7.5, 50 mM sodium chloride, 10 mM EDTA, and 0.01% Tween) and incubated at room temperature for one hour. This mixture is then further diluted to 90 nM in an Assay Buffer (20 mM HEPES pH 7.5, 150 mM sodium chloride, 10 mM magnesium chloride, and 0.005% Tween) containing 15 nM of Terbium-Streptavidin (Invitrogen, catalog #PV3577) and 900 nM of Bodipy-GDP (Invitrogen, catalog #G22360) and incubated at room temperature for six hours. It should be noted that this preformed TR-FRET complex for each of the RAS protein were made ahead of time, aliquoted and stored at −80° C. until the day of the experiment.
(§4) Each test compound (10 mM stock in DMSO) is diluted in DMSO to make a final-10-point, 3-fold dilution and is acoustically dispensed into a 384-well assay plate (Corning, catalog #3820) using an Echo 550 (Labcyte). Each well of the assay plate receives 3 μL of a specific 3×RAS preformed TR-FRET complex and 3 μL of Assay Buffer and is incubated at room temperature for 60 minutes (preincubation time). Each well then receives 3 μL of 3×recombinant human SOS protein and GTP (Sigma, G8877) in Assay Buffer and is incubated at room temperature for 30 minutes (G13D), 60 minutes (KRAS WT/G12C/D, H/NRAS) or 90 minutes for G12V. The final reaction in each well of 9 μL consists of 3 mM GTP, specific Ras and SOS proteins in the following concentrations: KRAS-G12C/SOS=3 nM/40 nM, KRAS-WT and G12D/SOS=1 nM/40 nM, KRAS-G12V/SOS=1.25 nM/160 nM. KRAS-G13D/SOS=1.25 nM/0 nM, HRAS and NRAS=1.25 nM/40 nM.
(§5) The time-resolved fluorescence resonance energy transfer (TR-FRET) signal is measured on an Envision (PerkinElmer) plate reader: Excitation filter=340 nm; emission 1=495 nm; emission2=520 nm; dichroic mirror=D400/D505; delay time=[…]. The signal of each well is determined as the ratio of the emission at 520 nm to that at 495 nm. Percent effect of each well is determined after normalization to control wells containing DMSO (no effect) or a saturating concentration of inhibitor (max effect). The apparent effect as a function of compound concentration is fit to a four-parameter logistic equation.

The target in the next assay is KRAS-G12D (Homo sapiens, UniProt P01116, G12D). Nature of the assay: SOS-catalyzed nucleotide exchange assay (Procedure A, TR-FRET), KRAS-G12D. The assay is classed as biochemical.
Description: as §1, §2, §3, §4, §5

In another assay the target is KRAS-G12V (Homo sapiens, UniProt P01116, G12V). The assay is described as follows: SOS-catalyzed nucleotide exchange assay (Procedure A, TR-FRET), KRAS-G12V. The class given is biochemical.
Description: as §1, §2, §3, §4, §5
In general terms: In TR-FRET formats the signal depends on donor and acceptor labels being close together.

[1] abbreviates: nucleotide exchange, read-out: KRAS WT GNE IC50.
The mark [2] stands for this setting: nucleotide exchange, read-out: KRAS G12D GNE IC50.
[3] abbreviates: nucleotide exchange, read-out: KRAS G12V GNE IC50.

Where two headings read alike, the source gives them in different places.

Chain of KRAS-G12V (P01116 with tags, fused parts or gaps isoform P01116-2 G12V): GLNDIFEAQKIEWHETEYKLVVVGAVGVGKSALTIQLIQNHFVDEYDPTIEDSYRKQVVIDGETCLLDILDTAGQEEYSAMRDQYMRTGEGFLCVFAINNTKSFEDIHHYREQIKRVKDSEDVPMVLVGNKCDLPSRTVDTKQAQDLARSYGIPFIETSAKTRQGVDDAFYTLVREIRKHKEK
Chain of KRAS-WT (P01116 with tags, fused parts or gaps isoform P01116-2): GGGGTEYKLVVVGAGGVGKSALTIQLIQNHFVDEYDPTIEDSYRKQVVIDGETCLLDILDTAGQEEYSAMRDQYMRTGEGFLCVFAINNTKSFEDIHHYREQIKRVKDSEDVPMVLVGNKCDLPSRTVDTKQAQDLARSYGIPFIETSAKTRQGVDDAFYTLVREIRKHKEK
Chain of KRAS-G12D (P01116 with tags, fused parts or gaps isoform P01116-2 G12D): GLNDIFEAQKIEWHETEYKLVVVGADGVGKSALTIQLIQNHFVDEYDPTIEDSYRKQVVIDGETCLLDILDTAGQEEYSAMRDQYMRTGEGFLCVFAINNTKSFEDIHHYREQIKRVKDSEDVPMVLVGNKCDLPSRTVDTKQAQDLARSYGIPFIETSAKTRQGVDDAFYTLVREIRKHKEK

For `Cc1cc2[nH]ncc2c(-c2nccc3c2C2(CC2)c2nc(OC[C@@]45CCCN4C[C@H](F)C5)nc(N4CCOC[C@@](C)(O)C4)c2-3)c1C(F)(F)F` (single isomer, unassigned) [Ex-307], the IC50 (as a rule, the midpoint of a concentration-inhibition curve) in the assay on AsPC-1 cells (ASPC1, 2 h, KRAS-G12D, 2 hours) was determined as 258 nM; at KRAS-WT (setting [1]), 22.4 nM; on KRAS-G12D (setting [2]), 8.96 nM; at KRAS-G12V (setting [3]) it was 24.7 nM.
Turning to `C[C@@]1(O)COCCN(c2nc(OC[C@]3(CN4CC5(CCC5)C4)CC3(F)F)nc3sc4c(-c5c(C6(F)CC6)c(Cl)cc6[nH]ncc56)nccc4c23)C1` [Ex-256, (6S)-4-(2-(((R)-1-((2-azaspiro[3.3]heptan-2-yl)methyl)-2,2-difluorocyclopropyl)methoxy)-8-(6-chloro-5-(1-fluorocyclopropyl)-1H-indazol-4-yl)pyrido[4′,3′:4,5]thieno[2,3-d]pyrimidin-4-yl)-6-methyl-1,4-oxazepam-6-ol], the IC50 with AsPC-1 cells (ASPC1, 2 hours compound incubation) was found to be 126 nM; on KRAS-WT (KRAS WT GNE IC50, nucleotide exchange), 16.5 nM; against KRAS-G12D (KRAS G12D GNE IC50, nucleotide exchange), 4.41 nM; against KRAS-G12V (KRAS G12V GNE IC50, nucleotide exchange), 11.1 nM.
Regarding `C[C@@]1(O)COCCN(c2nc(OC[C@]3(CN4C[C@H]5C[C@@H]4CO5)CC3(F)F)nc3sc4c(-c5c(C6(F)CC6)c(Cl)cc6[nH]ncc56)nccc4c23)C1` [Ex-257, (6S)-4-(2-(((R)-1-(((1R,4R)-2-oxa-5-azabicyclo[2.2.1]heptan-5-yl)methyl)-2,2-difluorocyclopropyl)methoxy)-8-(6-chloro-5-(1-fluorocyclopropyl)-1H-indazol-4-yl)pyrido[4′,3′:4,5]thieno[2,3-d]pyrimidin-4-yl)-6-methyl-1,4-oxazepan-6-ol], the IC50 worked out at 144 nM with AsPC-1 cells (ASPC1, 2 h, 2 hours compound incubation); 42.5 nM at KRAS-WT (setting [1]); 4.42 nM at KRAS-G12D (setting [2]); 28.7 nM on KRAS-G12V (setting [3]).
Take `C[C@@]1(O)COCCN(c2nc(OC[C@@]34CCCN3C[C@H](F)C4)nc3sc4c(-c5cccc(Cl)c5C5CC5)nccc4c23)C1` [Ex-122, (S)-4-(8-(3-chloro-2-cyclopropylphenyl)-2-(((2R,7aS)-2-fluorotetrahydro-1H-pyrrolizin-7a(5H)-yl)methoxy)pyri-do[4′,3′:4,5]thieno[2,3-d]pyrimidin-4-yl)-6-methyl-1,4-oxazepan-6-ol]: the 50% inhibitory concentration (IC50) on KRAS-WT (setting [1]) turned out to be 908 nM; on KRAS-G12D (setting [2]) it was 404 nM; on KRAS-G12V (setting [3]) it was 280 nM.
For `Cc1cc2[nH]ncc2c(-c2nncc3c2sc2nc(OC[C@@]45CCCN4C[C@H](F)C5)nc(N4CCOC[C@@](C)(O)C4)c23)c1-c1ccco1` [Ex-281, (6S)-4-(2-(((2R,7aS)-2-fluorotetrahydro-1H-pyrrolizin-7a(5H)-yl)methoxy)-8-(5-(furan-2-yl)-6-methyl-1H-indazol-4-yl)pyrimido[5′,4′:4,5]thie-no[2,3-d]pyridazin-4-yl)-6-methyl-1,4-oxazepan-6-ol], the IC50 in the assay with AsPC-1 cells (ASPC1, 2 h, KRAS-G12D, 2 hours) came to 356 nM; on KRAS-WT (setting [1]) it was 31.2 nM; on KRAS-G12D (setting [2]) it was 8.24 nM; at KRAS-G12V (setting [3]), 11.7 nM.
On the same counts, the results for `Cc1cccc(-c2nccc3c2sc2nc(OC[C@@]45CCCN4C[C@H](F)C5)nc(N4CCOC[C@@](C)(O)C4)c23)c1C` [Ex-120, (S)-4-(8-(2,3-dimethylpheny1)-2-(((2R,7aS)-2-fluorotetrahydro-1H-pyrrolizin-7a(5H)-yl)methoxy)pyrido[4′,3′:4,5]thi-eno[2,3-d]pyrimidin-4-yl)-6-methyl-1,4-oxazepan-6-ol] are 2030 nM, 1080 nM, 403 nM and 269 nM.
For `Cc1cc2[nH]ncc2c(-c2nccn3c2c(Cl)c2nc(OC[C@@]45CCCN4C[C@H](F)C5)nc(N4CCOC[C@@](C)(O)C4)c23)c1C(F)(F)F` [Ex-299, (S)-4-(10-chloro-2-(((2R,7aS)-2-fluorotetrahydro-1H-pyrrolizin-7a(5H)-yl)methoxy)-9-(6-methyl-5-(trifluoromethyl)-1H-indazol-4-yl)pyrazino[1′,2′:1,5]pyrrolo[3,2-d]pyrimidin-4-yl)-6-methyl-1,4-oxazepan-6-ol], the IC50 in the assay on AsPC-1 cells (ASPC1, 2 h, KRAS-G12D, 2 hours) is 1450 nM; at KRAS-WT (setting [1]) it was 293 nM; at KRAS-G12D (setting [2]), 115 nM; at KRAS-G12V (setting [3]), 93.1 nM.
Turning to `C=C1CN2CC(=C)CC2(COc2nc(N3CCOC[C@@](C)(O)C3)c3c(n2)sc2c(-c4c(C5CC5)c(Cl)cc5[nH]ncc45)nccc23)C1` [Ex-225, (6S)-4-(8-(6-chloro-5-cyclopropyl-1H-indazol-4-yl)-2-((2,6-dimethylene-tetrahydro-1H-pyrrolizin-7a(5H)-yl)methoxy)pyrido [4′,3′:4,5]thieno[2,3-d]pyrimidin-4-yl)-6-methyl-1,4-oxaze-pan-6-ol], the IC50 at KRAS-WT (setting [1]) is 39.9 nM; at KRAS-G12D (setting [2]) it was 12.7 nM; on KRAS-G12V (setting [3]), 21.5 nM.
As for `Cc1cc2[nH]ncc2c(-c2nccc3c2sc2nc(OC[C@@]45CCCN4C[C@H](F)C5)nc(N4CCOC[C@@](C)(O)C4)c23)c1C(C)(C)C#N` [Ex-154, 2-(4-(2-(((2R,7aS)-2-fluorotetrahydro-1H-pyrrolizin-7a(5H)-yl)methoxy)-4-((S)-6-hydroxy-6-methyl-1,4-oxazepan-4-yl)pyrido[4′,3′:4,5]thieno[2,3-d]pyrimidin-8-yl)-6-methyl-1H-indazol-5-yl)-2-methylpropanenitrile], the IC50 on KRAS-WT (setting [1]) stood at 277 nM; at KRAS-G12D (setting [2]) it was 104 nM; on KRAS-G12V (setting [3]) it was 103 nM.
